What was measured:
Assay in all cases: relative viability (nuclei count vs DMSO), 5 days (fraction); higher = more cells survive
[1] = compound: O[C@H]1CC[C@H](Nc2ncc3nc(Nc4c(F)cc(F)cc4F)n([C@H]4CCOC4)c3n2)CC1 [Tanzisertib] + CS(=O)(=O)CCNCc1ccc(-c2ccc3ncnc(Nc4ccc(OCc5cccc(F)c5)c(Cl)c4)c3c2)o1 [Lapatinib] (partner 2 µM)
Procedure, shortened: (§1)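 A single step with final 0.05% Triton X-100, 1% formaldehyde and 1 ug/ml Hoechst fixed the cells and stained nuclei 5 days after treatment. Lung cancer cell lines in 1536-well plates had been treated by pin tool the day after seeding with one drug alone or a fixed anchor-drug dose plus five library-drug doses (not always all listed) in √10 steps, and nuclei were counted on 4× images. Relative viability is the ratio of nuclei in treated wells to nuclei in vehicle wells, taken as the median of duplicate plates.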

[2] = compound: C1CNCCC1C2=CC(=NN2)C3=CC=NC=C3 + Cc1nc(NC(=O)N2CCC[C@H]2C(N)=O)sc1-c1ccnc(C(C)(C)C(F)(F)F)c1 [Alpelisib] (partner 2 µM)
Procedure, shortened: as §1

[3] = compound: C[C@@H](N)c1ccc(C(=O)Nc2ccnc3[nH]ccc23)cc1 + O=C(c1cc(Cc2n[nH]c(=O)c3ccccc23)ccc1F)N1CCN(C(=O)C2CC2)CC1 [Olaparib] (partner 8 µM)
Procedure, shortened: as §1

[4] = compound: C[C@@H](N)c1ccc(C(=O)Nc2ccnc3[nH]ccc23)cc1 + CC(=O)Nc1cccc(-n2c(=O)n(C3CC3)c(=O)c3c(Nc4ccc(I)cc4F)n(C)c(=O)c(C)c32)c1 [Trametinib] (partner 0.02 µM)
Procedure, shortened: as §1

Row | Cell Line | relative viability ([1]; first compound 0.08 µM) | relative viability ([1]; first compound 0.253 µM) | relative viability ([1]; first compound 0.8 µM) | relative viability ([1]; first compound 2.53 µM) | relative viability ([1]; first compound 8 µM) | relative viability ([2]; first compound 0.08 µM) | relative viability ([2]; first compound 0.8 µM) | relative viability ([2]; first compound 2.53 µM) | relative viability ([2]; first compound 8 µM) | relative viability ([3]; first compound 0.04 µM) | relative viability ([3]; first compound 0.1265 µM) | relative viability ([3]; first compound 0.4 µM) | relative viability ([3]; first compound 1.265 µM) | relative viability ([3]; first compound 4 µM) | relative viability ([4]; first compound 0.04 µM) | relative viability ([4]; first compound 0.1265 µM) | relative viability ([4]; first compound 0.4 µM) | relative viability ([4]; first compound 1.265 µM) | relative viability ([4]; first compound 4 µM)
1 | EBC-1 | 0.216 | 0.213 | 0.204 | 0.189 | 0.178 | 0.926 | 0.704 | 0.819 | 0.857 | 0.847 | 0.713 | 0.678 | 0.683 | 0.583 |  |  |  |  | 
2 | EKVX | 0.161 | 0.186 | 0.208 | 0.394 | 0.197 | 0.738 | 0.573 | 1.03 | 0.818 | 0.993 | 1.14 | 1.03 | 0.923 | 0.727 | 0.482 | 0.446 | 0.396 | 0.556 | 0.22
3 | EMC-BAC-2 | 1.03 | 0.923 | 0.931 | 0.867 | 0.841 | 0.755 | 0.659 | 0.72 | 0.758 |  | 0.516 | 0.477 | 0.505 | 0.425 | 0.958 | 1.04 | 1.03 | 1.01 | 0.969
4 | EPLC-272H | 0.929 | 1.06 | 0.955 | 1.22 | 1.03 | 0.99 | 0.774 | 0.953 | 0.983 | 0.729 | 1.17 | 0.808 | 0.703 | 0.394 | 0.299 | 0.283 | 0.358 |  | 0.267
5 | H3255 | 0.231 | 0.29 | 0.256 | 0.256 | 0.205 | 0.674 | 0.646 | 0.858 | 0.734 | 0.533 | 0.607 | 0.606 | 0.558 | 0.48 | 0.704 | 0.694 | 0.748 | 0.757 | 0.583
6 | HARA | 0.889 | 0.809 | 0.81 | 0.797 | 0.771 | 0.821 | 0.811 | 0.898 | 0.82 | 1.02 | 0.907 | 1.32 | 0.966 | 0.819 | 0.918 | 1.01 | 0.804 | 0.549 | 0.936
7 | HCC-15 | 0.974 | 0.854 | 0.888 | 0.916 | 0.659 | 0.856 | 0.856 | 0.898 | 0.839 | 0.744 | 0.731 | 0.726 | 0.693 | 0.743 | 0.456 | 0.365 | 0.422 | 0.384 | 0.362
8 | HCC-44 | 1.07 | 1.16 | 1.12 | 1.1 | 1.25 | 0.815 | 0.7 | 0.794 | 0.794 | 0.949 | 0.966 | 0.966 | 1.05 | 0.889 | 1.08 | 1.11 | 1.18 | 1.16 | 0.952
9 | HCC-78 | 0.72 | 0.7 | 0.827 | 0.786 | 0.303 | 0.344 |  | 0.37 | 0.411 | 1.05 | 0.964 | 1.16 | 1.4 | 1.08 | 0.979 | 0.793 | 0.981 | 1.2 | 0.661

— the supplement of paper PMC10307832
